Measured values from ChEMBL document CHEMBL1127947, “Synthesis and evaluation of n-substituted 1-(5-fluoro-2-pyrimidinyl)piperazine derivatives as potential anti-ischemic agents” (Bioorg Med Chem Lett, 1994).

Experiments:
Rattus norvegicus [1] = experiment: In vivo neuroprotective activity to block nitrogen (N2) lethality in male Dawley rats by ip administration at a dose of 40 mg/kg; assay type: functional; details: route intraperitoneal
[2] = biological target: T1, 5-hydroxytryptamine receptor 1A (Rattus norvegicus, UniProt P19327); experiment: In vitro binding affinity towards serotonin 5-HT1A receptor by the displacement of [3H]8-OH-DPAT from rat hippocampus; assay type: tissue-based
T1 sequence (P19327 whole entry): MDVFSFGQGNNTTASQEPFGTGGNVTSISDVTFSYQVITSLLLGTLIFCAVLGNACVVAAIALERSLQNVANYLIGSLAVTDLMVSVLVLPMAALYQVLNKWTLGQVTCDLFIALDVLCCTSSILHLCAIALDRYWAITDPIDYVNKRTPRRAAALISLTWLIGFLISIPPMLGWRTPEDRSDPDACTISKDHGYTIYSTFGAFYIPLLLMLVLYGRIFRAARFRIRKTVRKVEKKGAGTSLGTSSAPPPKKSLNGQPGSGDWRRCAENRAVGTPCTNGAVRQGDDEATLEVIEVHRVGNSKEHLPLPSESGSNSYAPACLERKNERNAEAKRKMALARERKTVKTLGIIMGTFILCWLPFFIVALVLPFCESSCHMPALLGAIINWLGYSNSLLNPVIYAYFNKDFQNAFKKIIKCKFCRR

[3] = biological target: 5-hydroxytryptamine receptor 2A (Rattus norvegicus, UniProt P14842); experiment: In vitro binding affinity towards serotonin 5-HT2A receptor by the displacement of [3H]spiperone from rat cortical membranes; assay type: cell membranes, Membrane
Rattus norvegicus [4] = experiment: In vivo neuroprotective activity to block nitrogen (N2) lethality in male Dawley rats by ip administration at a dose of 80 mg/kg; assay type: functional; details: route intraperitoneal
Rattus norvegicus [5] = experiment: In vivo neuroprotective activity to block nitrogen (N2) lethality in male Dawley rats by ip administration at a dose of 20 mg/kg; assay type: functional; details: route intraperitoneal
Rattus norvegicus [6] = experiment: In vivo neuroprotective activity to block nitrogen (N2) lethality in male Dawley rats by ip administration at a dose of 100 mg/kg; assay type: functional; details: route intraperitoneal
Rattus norvegicus [7] = experiment: In vivo neuroprotective activity to block nitrogen (N2) lethality in male Dawley rats by ip administration at a dose of 50/100 mg/kg; assay type: functional

Sequence of 5-hydroxytryptamine receptor 2A (P14842 whole entry): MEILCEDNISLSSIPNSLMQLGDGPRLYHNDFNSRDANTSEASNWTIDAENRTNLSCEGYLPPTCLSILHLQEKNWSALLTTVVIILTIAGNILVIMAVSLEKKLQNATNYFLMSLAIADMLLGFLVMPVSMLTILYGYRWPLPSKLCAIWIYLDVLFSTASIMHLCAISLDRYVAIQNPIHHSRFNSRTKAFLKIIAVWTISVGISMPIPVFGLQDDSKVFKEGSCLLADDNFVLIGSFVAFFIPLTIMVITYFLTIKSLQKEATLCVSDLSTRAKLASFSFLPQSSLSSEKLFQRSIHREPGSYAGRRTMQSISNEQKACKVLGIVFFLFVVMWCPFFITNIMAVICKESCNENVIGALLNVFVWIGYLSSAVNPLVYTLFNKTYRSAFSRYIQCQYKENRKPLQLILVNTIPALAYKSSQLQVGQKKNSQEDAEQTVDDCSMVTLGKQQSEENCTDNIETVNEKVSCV

With `OC(CCCN1CCN(c2ncc(F)cn2)CC1)(c1ccc(F)cc1)C1CCCCC1` (configuration not stated) the Protection (Rattus norvegicus [1]) was 75%, the IC50 [2] was 50 nM and the IC50 [3] was 336 nM.
For `O=C(NC(CCCN1CCN(c2ncc(F)cn2)CC1)c1ccc(F)cc1)c1ccc(F)cc1` (configuration not stated), the Protection (Rattus norvegicus [1]) was 88%, the IC50 [2] was 106 nM and the IC50 [3] was 468 nM.
Molecule `Fc1cnc(N2CCN(CCCCC3CCCCC3)CC2)nc1` has a Protection (Rattus norvegicus [4]) of 75% and an IC50 [2] of 315 nM.
`Fc1ccc(OCCCN2CCN(c3ncc(F)cn3)CC2)cc1` showed a Protection (Rattus norvegicus [1]) of 25%, an IC50 [2] of 145 nM and an IC50 [3] of 141 nM.
Work on `O=S(=O)(NC(CCCN1CCN(c2ncc(F)cn2)CC1)c1ccc(F)cc1)c1ccc(F)cc1` (configuration not stated) yielded a Protection (Rattus norvegicus [4]) of 100%, an IC50 [2] of 1810 nM and an IC50 [3] of 3400 nM.
`CC(=O)NC(CCCN1CCN(c2ncc(F)cn2)CC1)c1ccc(F)cc1` (configuration not stated) gave a Protection (Rattus norvegicus [1]) of 13% and an IC50 [2] of 289 nM.
Work on `CC(=O)OC(CCCN1CCN(c2ncc(F)cn2)CC1)c1ccc(F)cc1` (configuration not stated) yielded a Protection (Rattus norvegicus [4]) of 100%, an IC50 [2] of 46 nM and an IC50 [3] of 504 nM.
Molecule `O=C(OC(CCCN1CCN(c2ncc(F)cn2)CC1)c1ccc(F)cc1)c1ccccc1` (configuration not stated) has a Protection (Rattus norvegicus [4]) of 63% and an IC50 [2] of 581 nM.
With `OC(CCCN1CCN(c2ncc(F)cn2)CC1)C1CCCCC1` (configuration not stated) the Protection (Rattus norvegicus [1]) was 100% and the IC50 [2] was 30 nM.
`O=S(=O)(NC(CCCN1CCN(c2ncc(F)cn2)CC1)C1CCCCC1)c1ccc(F)cc1` (configuration not stated) was tested, and the Protection (Rattus norvegicus [5]) was 50% and the IC50 [3] was 760 nM.
`O=C(NC(CCCN1CCN(c2ncc(F)cn2)CC1)C1CCCCC1)c1ccc(F)cc1` (configuration not stated) gave a Protection (Rattus norvegicus [5]) of 50% and an IC50 [3] of 760 nM.
In the case of `O=S(=O)(NC(CCCN1CCN(c2ncc(F)cn2)CC1)c1ccc(F)c2ccccc12)c1ccc(F)cc1` (configuration not stated), the Protection (Rattus norvegicus [1]) is reported as 38%.
With `Fc1ccc(SCCCN2CCN(c3ncc(F)cn3)CC2)cc1` the Protection (Rattus norvegicus [1]) was 13% and the IC50 [2] was 129 nM.
Molecule `NC(CCCN1CCN(c2ncc(F)cn2)CC1)C1CCCCC1` (configuration not stated) has a Protection (Rattus norvegicus [5]) of 50% and an IC50 [2] of 257 nM.
Molecule `Fc1ccc(CCCCN2CCN(c3ncc(F)cn3)CC2)cc1` has a Protection (Rattus norvegicus [1]) of 75%, an IC50 [2] of 71 nM and an IC50 [3] of 212 nM.
`NC(CCCN1CCN(c2ncc(F)cn2)CC1)c1ccc(F)c2ccccc12` (configuration not stated) showed a Protection (Rattus norvegicus [1]) of 38% and an IC50 [2] of 345 nM.
`OC(CCCN1CCN(c2ncc(F)cn2)CC1)c1ccc(F)c2ccccc12` (configuration not stated) gave a Protection (Rattus norvegicus [6]) of 100%, an IC50 [2] of 562 nM and an IC50 [3] of 1010 nM.
`O=S(=O)(CCCN1CCN(c2ncc(F)cn2)CC1)c1ccc(F)cc1` gave a Protection (Rattus norvegicus [1]) of 25% and an IC50 [2] of 461 nM.
With `Fc1cnc(N2CCN(CCCCc3ccc(F)c4ccccc34)CC2)nc1` the Protection (Rattus norvegicus [5]) was 100%, the IC50 [2] was 414 nM and the IC50 [3] was 590 nM.
Work on `OC(CCCN1CCN(c2ncc(F)cn2)CC1)c1ccc(F)cc1` (configuration not stated) [BMY-14802] yielded a Protection (Rattus norvegicus [7]) of 63% and an IC50 [3] of 1700 nM.
